Reference: ChEMBL document CHEMBL1127534, “2-Alkynyl derivatives of adenosine-5'-N-ethyluronamide: selective A2 adenosine receptor agonists with potent inhibitory activity on platelet aggregation” (J Med Chem, 1994)

Experiments:
Adenosine A2 receptor [1] = biological target: T1, Adenosine A2 receptor (Rattus norvegicus, UniProt P29276+P30543)
Description: Affinity for the adenosine A2 receptor was evaluated in a competition assay in rat striatum using [3H]-CGS- 21680 as radioligand

Adenosine receptor A1 [2] = biological target: T2, Adenosine receptor A1 (Rattus norvegicus, UniProt P25099); assay: Negative chronotropic activity via A1 Adenosine receptor was tested in spontaneously beating rat atria; format: functional
T2 sequence (P25099 whole entry): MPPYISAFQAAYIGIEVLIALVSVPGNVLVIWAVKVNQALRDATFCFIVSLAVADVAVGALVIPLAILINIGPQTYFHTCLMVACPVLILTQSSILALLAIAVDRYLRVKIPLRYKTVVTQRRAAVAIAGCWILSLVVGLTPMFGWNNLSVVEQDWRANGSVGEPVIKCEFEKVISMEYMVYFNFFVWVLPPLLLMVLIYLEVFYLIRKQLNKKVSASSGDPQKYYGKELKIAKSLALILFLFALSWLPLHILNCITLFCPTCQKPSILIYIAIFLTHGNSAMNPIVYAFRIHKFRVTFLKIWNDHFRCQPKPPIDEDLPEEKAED

Adenosine receptor A1 [3] = biological target: T2, Adenosine receptor A1; assay: biochemical
Description: Affinity for adenosine A1 receptor assayed in a competition assay in rat brain using [3H]-CHA as radioligand

Adenosine A2 receptor [4] = biological target: T1, Adenosine A2 receptor; remark: listed apart in the source
Description: Negative chronotropic activity via A2 Adenosine receptor was tested monitoring vasodilation in rat aorta

[5] = Hydrophobicity index (k') (RP-HPLC); format: ADME
Adenosine receptor A1 [6] = biological target: T2, Adenosine receptor A1; assay: Negative chronotropic activity for A1 Adenosine receptor in spontaneously beating rat atria; format: functional
Adenosine A2 receptor [7] = biological target: T1, Adenosine A2 receptor; assay: Vasorelaxant activity for A2 Adenosine receptor as vasodilation in rat aorta
Oryctolagus cuniculus = species: Oryctolagus cuniculus; assay: Antiaggregatory effect was evaluated on rabbit platelet aggregation induced by ADP.; format: functional
Adenosine receptor A1 [8] = biological target: T2, Adenosine receptor A1; assay: Affinity for A1 Adenosine receptor in rat brain using [3H]CHA; format: tissue-based
Adenosine A2 receptor [9] = biological target: T1, Adenosine A2 receptor; assay: Affinity for A2 Adenosine receptor in rat striatum using [3H]-CGS- 21680; format: tissue-based

| Ki (Adenosine A2 receptor [1]) | EC50 (Adenosine receptor A1 [2]) | Ki (Adenosine receptor A1 [3]) | EC50 (Adenosine A2 receptor [4]) | k' [5] | EC50 (Adenosine receptor A1 [6]) | EC50 (Adenosine A2 receptor [7]) | Ki (Adenosine receptor A1 [8]) | Ki (Adenosine A2 receptor [9]) | Compound | Ratio (Oryctolagus cuniculus) |
| --- | --- | --- | --- | --- | --- | --- | --- | --- | --- | --- |
| 4.7 nM | 2370 nM | 184 nM | 111 nM | 0.32 | – | – | – | – | CCNC(=O)[C@H]1O[C@@H](n2cnc3c(N)nc(C#CCCCC#N)nc32)[C@H](O)[C@@H]1O | – |
| 38.3 nM | 730 nM | 48.6 nM | 564 nM | 0.15 | – | – | – | – | CCNC(=O)[C@H]1O[C@@H](n2cnc3c(N)nc(C#CCN)nc32)[C@H](O)[C@@H]1O | – |
| 6.8 nM | > 10000 nM | 42.1 nM | 391 nM | 0.35 | – | – | – | – | CCNC(=O)[C@H]1O[C@@H](n2cnc3c(N)nc(C#CCCCCO)nc32)[C@H](O)[C@@H]1O | – |
| 56.4 nM | 6050 nM | 69.6 nM | 1650 nM | 0.29 | – | – | – | – | CCNC(=O)[C@H]1O[C@@H](n2cnc3c(N)nc(C#CCC(C)O)nc32)[C@H](O)[C@@H]1O (stereo partly specified) | – |
| – | 153 nM | – | 69.3 nM | 0.42 | – | – | 20.4 nM | 12.4 nM | CCNC(=O)[C@H]1O[C@@H](n2cnc3c(N)nc(C#CC(O)CC)nc32)[C@H](O)[C@@H]1O (stereo partly specified) | – |
| 7.6 nM | 657 nM | 11.1 nM | 828 nM | 0.23 | – | – | – | – | CCNC(=O)[C@H]1O[C@@H](n2cnc3c(N)nc(C#CC(C)O)nc32)[C@H](O)[C@@H]1O (stereo partly specified) | – |
| 1 nM | 2520 nM | 37.9 nM | 715 nM | 1.35 | – | – | – | – | CCNC(=O)[C@H]1O[C@@H](n2cnc3c(N)nc(C#CCCCCl)nc32)[C@H](O)[C@@H]1O | – |
| 11.3 nM | > 10000 nM | 99.9 nM | 300 nM | 0.22 | – | – | – | – | CCNC(=O)[C@H]1O[C@@H](n2cnc3c(N)nc(C#CCCCO)nc32)[C@H](O)[C@@H]1O | – |
| 10.8 nM | > 10000 nM | 47.3 nM | 59.4 nM | 0.2 | – | – | – | – | CCNC(=O)[C@H]1O[C@@H](n2cnc3c(N)nc(C#CCCO)nc32)[C@H](O)[C@@H]1O | – |
| 27.3 nM | > 10000 nM | 167 nM | 1200 nM | 1.27 | – | – | – | – | C=C(C)C#Cc1nc(N)c2ncn([C@@H]3O[C@H](C(=O)NCC)[C@@H](O)[C@H]3O)c2n1 | – |
| 57.8 nM | 167 nM | 35.4 nM | 440 nM | 0.25 | – | – | – | – | C#Cc1nc(N)c2ncn([C@@H]3O[C@H](C(=O)NCC)[C@@H](O)[C@H]3O)c2n1 | – |
| 2.3 nM | 332 nM | 27.9 nM | 140 nM | 0.37 | – | – | – | – | CCNC(=O)[C@H]1O[C@@H](n2cnc3c(N)nc(C#CCN(C)C)nc32)[C@H](O)[C@@H]1O | – |
| 9.1 nM | 84.2 nM | 14.1 nM | 367 nM | 0.17 | – | – | – | – | CCNC(=O)[C@H]1O[C@@H](n2cnc3c(N)nc(C#CCO)nc32)[C@H](O)[C@@H]1O | – |
| 2.2 nM | > 10000 nM | 130 nM | 596 nM | 2.57 | – | – | – | – | CCCCC#Cc1nc(N)c2ncn([C@@H]3O[C@H](C(=O)NCC)[C@@H](O)[C@H]3O)c2n1 | – |

Further lines, the compound ahead of its results:

| Compound | Ki (Adenosine A2 receptor [1]) | EC50 (Adenosine receptor A1 [2]) | Ki (Adenosine receptor A1 [3]) | EC50 (Adenosine A2 receptor [4]) | k' [5] | EC50 (Adenosine receptor A1 [6]) | EC50 (Adenosine A2 receptor [7]) | Ki (Adenosine receptor A1 [8]) | Ki (Adenosine A2 receptor [9]) | Ratio (Oryctolagus cuniculus) |
| --- | --- | --- | --- | --- | --- | --- | --- | --- | --- | --- |
| CCNC(=O)[C@H]1O[C@@H](n2cnc3c(N)nc(C#CC(O)c4ccccc4)nc32)[C@H](O)[C@@H]1O (stereo partly specified) | 0.9 nM | 110 nM | 2.5 nM | 123 nM | 0.82 | – | – | – | – | – |
| CCNC(=O)[C@H]1O[C@@H](n2cnc3c(N)nc(C#CC(C)(O)c4ccccc4)nc32)[C@H](O)[C@@H]1O (stereo partly specified) | 1.7 nM | 2430 nM | 32.7 nM | 456 nM | 1.32 | – | – | – | – | – |
| CCNC(=O)[C@H]1O[C@@H](n2cnc3c(N)nc(C#CC4(O)CCCC4)nc32)[C@H](O)[C@@H]1O | 0.6 nM | – | 4 nM | – | 0.77 | 475 nM | 159 nM | – | – | 5.3 |
| CCNC(=O)[C@H]1O[C@@H](n2cnc3c(N)nc(C#CC(C)(O)CC(C)C)nc32)[C@H](O)[C@@H]1O (stereo partly specified) | 0.5 nM | > 10000 nM | 3 nM | 338 nM | 1.84 | – | – | – | – | – |
| CCNC(=O)[C@H]1O[C@@H](n2cnc3c(N)nc(C#CC4CCCCC4)nc32)[C@H](O)[C@@H]1O | 9.2 nM | > 10000 nM | 236 nM | 329 nM | 4.54 | – | – | – | – | – |
| CCNC(=O)[C@H]1O[C@@H](n2cnc3c(N)nc(C#CC4=CCCCC4)nc32)[C@H](O)[C@@H]1O | 61.3 nM | – | 3300 nM | – | 3.9 | > 10000 nM | 3030 nM | – | – | 0.03 |
| CCNC(=O)[C@H]1O[C@@H](n2cnc3c(N)nc(C#CCCOC4CCCCO4)nc32)[C@H](O)[C@@H]1O (stereo partly specified) | 5 nM | – | 267 nM | – | 1.32 | > 10000 nM | 115 nM | – | – | 0.3 |
| CCNC(=O)[C@H]1O[C@@H](n2cnc3c(N)nc(C#CC(OCC)OCC)nc32)[C@H](O)[C@@H]1O | 441 nM | > 10000 nM | 656 nM | 382 nM | 1.63 | – | – | – | – | – |
| CCNC(=O)[C@H]1O[C@@H](n2cnc3c(N)nc(C#CC4(N)CCCCC4)nc32)[C@H](O)[C@@H]1O | 39.4 nM | – | 398 nM | – | 0.6 | > 10000 nM | 779 nM | – | – | 0.6 |
| OC[C@H]1O[C@@H](n2cnc3c(NC4CCCC4)nc(Cl)nc32)[C@H](O)[C@@H]1O | – | – | – | – | 2.76 | – | – | – | – | – |
| CCNC(=O)[C@H]1O[C@@H](n2cnc3c(N)ncnc32)[C@H](O)[C@@H]1O [NECA] | – | – | – | – | 0.19 | – | – | – | – | – |
